Like-named read-outs stand apart in the source and are kept apart here. Each block holds one compound with its values, some of them ahead of it.
How the values were obtained:
[1] = system: rats ZUCKER fa/fa; test: Test in vivo on rats (weight and measurement over 5 weeks); details: group II ionisation every two days
Excerpt: Three groups of 4 rats ZUCKER fa/fa defined in an homogeneous way were placed in the animal house at 8 weeks. The experiment begins when the rats have reached 9 weeks and similar weights (240±15 g); they are placed in individual cage with water and food ad libidum. The whole of the rats are circularly hair removed on median part in order to tattoo an axis between the neck and the tail. On a group N^o I, the emulsion described in example 1 is daily applied on the hair-removed part until absorption with removing the excess. […] A third group is used as the control (group C). These experiments are carried out during 5 weeks.

[2] = system: Segments of perirenal adipose tissue; test: Lipolytic activity in vitro (glycerol liberation); assay type: cell-based, male rabbits; details: rabbit perirenal adipose tissue, 37° C.
Method: The in vitro lipolytic activity of solutions containing compounds according to the invention is tested (Solutions at 4%).
Segments of perirenal adipose tissue of male rabbits are incubed in a Krebs-Ringer bicarbonate buffer pH 7.4, which contains 5,5 mM glucose, 40 mg/ml of bovin albumin serum. The total volume of incubation is 3 ml with the substance to be tested prepared in 0.01 M of NH4HCO3 and additionned in a volume of 0.1 ml. The preparations are stirred at 37° C., under a 95% O2, 5% CO2 atmosphere.
The lipolytic activity levels are quantified by glycerol liberation in the incubation medium and are expressed by gramme of lipid. The glycerol is dosed in duplicate by enzymatic method: glycerokinase, glycerophosphate deshydrogenase (Boerhinger-Mannheim), method of Wieland (32), modified by Vaughan (33).

[3] = hairless, rat, 30 mM
Method: (§1) Hairless rats are sacrified by intra-cardiac injection of pentobarbital; the ventral skin is recollected and hypodermis is removed with a scalpel. 0.2 ml by cm^2 of the solution to be tested are dropped on a piece of skin (dermis and epidermis) which is set on a diffusion cell. The diffusion is tested in comparison with phosphate buffer containing 0.5% of tween 20.
(§2) At different times, the phosphate buffer is replaced and L-arginine is dosed by HPLC in the recollected dialysate fractions.

[4] = Comparative study of cutaneous diffusion (diffusion cell); details: solution at 30 mM, 0.2 ml by cm^2 on hairless rat skin; L-arginine dosed by HPLC in dialysate
Method: as §1, §2

Compound: N=C(N)NCCC[C@H](N)C(=O)O.O=C(O)c1ccccc1O [Group II, arginium salicylate]
Meas ([1]; Week 1, group I daily topical): 189.75 mm
Weight ([1]; Week 1, group I daily topical): 280.25 g
Meas ([1]; Week 2, group I daily topical): 213.25 mm
Weights ([1]; Week 2, group I daily topical): 318.25 g
Meas ([1]; Week 3, group I daily topical): 224.25 mm
Weights ([1]; Week 3, group I daily topical): 345.5 g
Meas ([1]; Week 4, group I daily topical): 233.25 mm
Weights ([1]; Week 4, group I daily topical): 367.25 g
Meas ([1]; Week 5, group I daily topical): 238.5 mm
Weights ([1]; Week 5, group I daily topical): 386.25 g

Compound: C[Si](O)(O)OC(=O)C(N)CCCNC(=N)N [Monomethylsilanediol of L-arginine]
Glycerol ([2]; 15 mg/L): 1 ± 0.5 nmoles/g of lipids
Glycerol ([2]; 30 mg/L): 2.40 ± 0.35 nmoles/g of lipids
Glycerol ([2]; 45 mg/L): 2.5 ± 0.35 nmoles/g of lipids
% of diffusion after 5h [3]: 42%

% of diffusion after 5h [4]: 51%
Compound: CC(C)(C)C(=O)OCOC(=O)[C@@H](N)CCCNC(=N)N [L-arginylpivalloyoxymethylester]

Reference: patent US6716436B1, “Cosmetic composition for slimming containing L-arginine, an L-arginine analogue, or one of their derivatives, for topical application” (Exsymol S.A.M., priority 1999, dated 2004)
